# Source: patent US20110105323A1, “Calcium Salts of Phosphorous Acid for Increasing the Effect of Fungicides” (BASF SE, priority 2008, published 2011)
# Like-named read-outs stand apart in the source and are kept apart here.
# Experiments:
# Plasmopara viticola [1] = assay: Example 6: downy mildew on grapevines, greenhouse, protective spray (1 day); type: in vivo
# Phakopsora pachyrhizi = assay: Example 11: soybean rust on soybeans, greenhouse; type: in vivo
# [2] = test system: downy mildew on grapevines; assay: Example 12: downy mildew on grapevines, outdoor test with natural infections; type: in vivo
# [3] = test system: downy mildew on grapevines; assay: Example 13: downy mildew on grapevines, outdoor test with natural infections; type: in vivo
# Phytophthora infestans [4] = conditions: in vivo
# Plasmopara viticola [5] = assay: Example 7: downy mildew on grapevines, greenhouse, as example 6; type: in vivo
# Plasmopara viticola [6] = assay: Example 8: downy mildew on grapevines, bar application pattern; type: in vivo
# [7] = test system: downy mildew on grapevines; assay: Example 14: downy mildew on grapevines, outdoor test with natural infections; type: in vivo
# Plasmopara viticola [8] = assay: Example 10: downy mildew on grapevines, greenhouse, protective spray (7 days); type: in vivo
# Phytophthora infestans [9] = conditions: in vivo; remark: listed apart in the source
# Plasmopara viticola [10] = assay: Example 9: downy mildew on grapevines, translaminar action; type: in vivo
smiles,measurement,setting,value
COC(=O)N(OC)c1ccccc1COc1ccn(-c2ccc(Cl)cc2)n1 [pyraclostrobin],Efficacy W,"Plasmopara viticola [1]; pyraclostrobin 0.5 ppm in spray liquor, Riesling leaves sprayed 1 day before inoculation",92%
O=C(Nc1ccccc1-c1ccc(Cl)cc1)c1cccnc1Cl [boscalid],Efficacy W,"Phakopsora pachyrhizi; boscalid 20 ppm, soybean 'Monsoy' leaves sprayed 2 days before inoculation, scored after 10-12 days",11%
N#Cc1sc2c(=O)c3ccccc3c(=O)c=2sc1C#N [dithianon],Efficacy W,"[2]; dithianon 300 ppm, outdoors, natural infections, spray interval 14-16 days, scored 1 day after the 6th application",85%
same,Efficacy W,"[3]; dithianon 400 ppm, outdoors, natural infections, 7 application dates, spray interval 14-16 days",48%
same,Efficacy W,Phytophthora infestans [4],31%
same,Efficacy W,"Plasmopara viticola [5]; dithianon 10 ppm in spray liquor, grapevine leaves sprayed 1 day before inoculation",62%
same,Efficacy W,"Plasmopara viticola [6]; dithianon 10 ppm, bar application on lower half of upper leaf side 1 day before inoculation, scored on apical half of leaf underside",6%
same,Efficacy W,"[7]; dithianon 300 ppm, outdoors, natural infections, spray interval 9-11 days, scored 4 days after the 8th application",56%
"CCCCCCCCc1c(CC)nc2ncnn2c1N [fungicide A, 5-ethyl-6-octyl-[1,2,4]triazolo[1,5-a]pyrimidin-7-ylamine]",Efficacy W,"Plasmopara viticola [8]; fungicide A 100 ppm, grapevine leaves sprayed 7 days before inoculation",85%
same,Efficacy W,Phytophthora infestans [9],39%
same,Efficacy W,"Plasmopara viticola [10]; fungicide A 5 ppm, translaminar, applied to upper side of leaf 48 hours prior to inoculation",1%
"[Ca+2].[O-]P([O-])O [Ca(H2PO3)2, calcium hydrogenphosphite]",Efficacy W,[2]; in vivo,18%
same,Efficacy W,[3]; in vivo,21%
same,Efficacy W,Plasmopara viticola [5]; in vivo,3%
same,Efficacy W,Phakopsora pachyrhizi; in vivo,48%
same,Efficacy W,Plasmopara viticola [1]; in vivo,3%
same,Efficacy W,Plasmopara viticola [6]; in vivo,0%
same,Efficacy W,Plasmopara viticola [8]; in vivo,9%
same,Efficacy W,Plasmopara viticola [10]; in vivo,0%
same,Efficacy W,[7]; in vivo,24%
